Experimental data from PubChem BioAssay AID1918993 (Molecular Pharmacology Branch, DTP, NCI, 2023).
“And” between values parts separate entries of the source, which are not always exact repeats. Identical values can stand only once. Blank lines part the entries; values can stand above or below the compound they belong to.

Tested on: 233499-124-R-J3-PDC complex spheroid growth
Experiment: Anticancer human tumor 233499-124-R-J3-PDC patient-derived colon adenocarcinoma cell line growth inhibition [AhR]
Conditions: for viability, T/C: stronger effect = lower value
Method in brief: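 Complex tumor spheroids co-cultured with HUVEC and human MSC stroma; AhR antagonists tested in combination with standard-of-care and investigational agents. Top concentration at or near clinical Cmax (else 10 microM), half-log dilutions; growth expressed as percent test/control.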

[1] = curve of first compound, second compound 0.1 µM
[2] = curve of first compound, second compound 0.316 µM
[3] = curve of first compound, second compound 1 µM
[4] = curve of first compound, second compound 3.16 µM
[5] = curve of first compound, second compound 10 µM
[6] = second compound 0.1 µM, first compound 0.0316 µM
[7] = second compound 0.1 µM, first compound 0.1 µM
[8] = second compound 0.316 µM, first compound 0.0316 µM
[9] = second compound 0.316 µM, first compound 0.1 µM
[10] = second compound 1 µM, first compound 0.0316 µM
[11] = second compound 1 µM, first compound 0.1 µM
[12] = second compound 3.16 µM, first compound 0.0316 µM
[13] = second compound 3.16 µM, first compound 0.1 µM
[14] = second compound 10 µM, first compound 0.0316 µM
[15] = second compound 10 µM, first compound 0.1 µM
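Further: spheroids exposed to agents for seven days before reading.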

IC50 (curve of compound): > 10 µM
Compound: COc1cc(Nc2ncc3c(n2)-c2ccc(Cl)cc2C(c2c(F)cccc2OC)=NC3)ccc1C(=O)O
viability, T/C (compound 0.0316 µM): 86.8% and 75.8% and 70.1%
viability, T/C (compound 0.1 µM): 82.6% and 65.5% and 75.6%
viability, T/C (compound 0.316 µM): 80.1% and 102% and 79.4%
viability, T/C (compound 1 µM): 84.1% and 87.8% and 83.3%
viability, T/C (compound 3.16 µM): 97.7% and 89.4% and 91.1%
viability, T/C (compound 10 µM): 82.9% and 90.2% and 86%

IC50 [1]: > 10 µM
IC50 [2]: > 10 µM
IC50 [3]: > 10 µM
IC50 [4]: > 10 µM
IC50 [5]: > 10 µM
Compound: CC1COCCN1c1cc(C2(S(C)(=N)=O)CC2)nc(-c2ccnc3[nH]ccc23)n1 (configuration not stated) + CC(CO)NC(=O)c1cc(-c2ccc(Cl)cc2)nn(-c2cnn(C)c2)c1=O
viability, T/C [6]: 101%
viability, T/C [7]: 97.2%
viability, T/C (second compound 0.1 µM, first compound 0.316 µM): 94.2%
viability, T/C (second compound 0.1 µM, first compound 1 µM): 91%
viability, T/C (second compound 0.1 µM, first compound 3.16 µM): 75.8%
viability, T/C (second compound 0.1 µM, first compound 10 µM): 74.1%
viability, T/C [8]: 88.2%
viability, T/C [9]: 89.1%
viability, T/C (second compound 0.316 µM, first compound 0.316 µM): 97.3%
viability, T/C (second compound 0.316 µM, first compound 1 µM): 83%
viability, T/C (second compound 0.316 µM, first compound 3.16 µM): 87.4%
viability, T/C (second compound 0.316 µM, first compound 10 µM): 72.1%
viability, T/C [10]: 79.7%
viability, T/C [11]: 96.2%
viability, T/C (second compound 1 µM, first compound 0.316 µM): 90.3%
viability, T/C (second compound 1 µM, first compound 1 µM): 92.3%
viability, T/C (second compound 1 µM, first compound 3.16 µM): 86.9%
viability, T/C (second compound 1 µM, first compound 10 µM): 69%
viability, T/C [12]: 98.8%
viability, T/C [13]: 95.8%
viability, T/C (second compound 3.16 µM, first compound 0.316 µM): 91.3%
viability, T/C (second compound 3.16 µM, first compound 1 µM): 85.9%
viability, T/C (second compound 3.16 µM, first compound 3.16 µM): 82.5%
viability, T/C (second compound 3.16 µM, first compound 10 µM): 68.3%
viability, T/C [14]: 72.5%
viability, T/C [15]: 79%
viability, T/C (second compound 10 µM, first compound 0.316 µM): 82.2%
viability, T/C (second compound 10 µM, first compound 1 µM): 79.5%
viability, T/C (second compound 10 µM, first compound 3.16 µM): 61.8%
viability, T/C (second compound 10 µM, first compound 10 µM): 56.6%

IC50 [1]: > 0.1 µM
IC50 [2]: > 0.1 µM
IC50 [3]: > 0.1 µM
IC50 [4]: > 0.1 µM
IC50 [5]: > 0.1 µM
Compound: CC[C@@]1(O)C(=O)OCc2c1cc1n(c2=O)Cc2cc3c(CN(C)C)c(O)ccc3nc2-1 + Cc1ccccc1N=Nc1ccc(NC(=O)c2ccnn2C)c(C)c1
viability, T/C (second compound 0.1 µM, first compound 0.000316 µM): 88.5%
viability, T/C (second compound 0.1 µM, first compound 0.001 µM): 105%
viability, T/C (second compound 0.1 µM, first compound 0.00316 µM): 113%
viability, T/C (second compound 0.1 µM, first compound 0.01 µM): 109%
viability, T/C [6]: 79.4%
viability, T/C [7]: 92.1%
viability, T/C (second compound 0.316 µM, first compound 0.000316 µM): 114%
viability, T/C (second compound 0.316 µM, first compound 0.001 µM): 110%
viability, T/C (second compound 0.316 µM, first compound 0.00316 µM): 90.8%
viability, T/C (second compound 0.316 µM, first compound 0.01 µM): 98.8%
viability, T/C [8]: 111%
viability, T/C [9]: 91.2%
viability, T/C (second compound 1 µM, first compound 0.000316 µM): 97.9%
viability, T/C (second compound 1 µM, first compound 0.001 µM): 105%
viability, T/C (second compound 1 µM, first compound 0.00316 µM): 89.5%
viability, T/C (second compound 1 µM, first compound 0.01 µM): 93.2%
viability, T/C [10]: 87.3%
viability, T/C [11]: 95%
viability, T/C (second compound 3.16 µM, first compound 0.000316 µM): 111%
viability, T/C (second compound 3.16 µM, first compound 0.001 µM): 105%
viability, T/C (second compound 3.16 µM, first compound 0.00316 µM): 96.1%
viability, T/C (second compound 3.16 µM, first compound 0.01 µM): 98.2%
viability, T/C [12]: 95.9%
viability, T/C [13]: 87.9%
viability, T/C (second compound 10 µM, first compound 0.000316 µM): 102%
viability, T/C (second compound 10 µM, first compound 0.001 µM): 113%
viability, T/C (second compound 10 µM, first compound 0.00316 µM): 95.5%
viability, T/C (second compound 10 µM, first compound 0.01 µM): 104%
viability, T/C [14]: 101%
viability, T/C [15]: 106%
